Assays:
[1] = tested on: RNA Polymerase II Serine 5 phosphorylation in A549 cells overexpressing CDK7-mutant (C312S); experiment: Imaging-based cellular RNA PolII Ser5 phosphorylation assay in A549 cells overexpressing CDK7-mutant (C312S); assay type: cell-based, human; details: RNA PolII Ser5 phosphorylation, averaged over all measurements; for IC50: Homo sapiens, A549, A549 cells overexpressing CDK7-mutant (C312S), read-out: CDK7_A549 mutant hCDK7(pIC50) (converted); for CDK7_A549 mutant hCDK7(pIC50): A549 cells overexpressing CDK7-mutant (C312S)
Source text: (§1) To evaluate inhibition of CDK7 kinase activity, a 384-well automated imaging assay was used. This assay detects Serine 5 phosphorylation on a unique heptapeptide sequence in the C-terminal domain of Rpb1 subunit of RNA polymerase II, the downstream substrate of CDK7. This heptapeptide sequence is repeated up to 52 times in the CTD of Rpb1.
(§2) A549 adenocarcinoma human alveolar basal epithelial cells (ATCC, CCL-185), rabbit Phospho-Rpb1 CTD (Ser5) antibody (D9N51 (Cell Signaling Technology)), DMEM (Sigma), Fetal Bovine Serum (Biowest), L-glutamine (Sigma), Penicillin/Streptomycin (Life Technologies), Sodium Pyruvate (Sigma), Hepes (Sigma), poly-D-lysine coated μclear 384 black plates (Greiner), formaldehyde (PolySciences), D-PBS (Sigma), Methanol (Sigma), Alexa Fluor 488 goat anti rabbit IgG secondary antibody (Life Technologies), HCS CellMask™ Deep Red stain (Life Technologies), Hoechst 33258 (Invitrogen).
(§3) RNA Polymerase II Serine 5 phosphorylation was detected using a specific rabbit Phospho-Rpb1 CTD (Ser5) antibody. A549 adenocarcinoma human alveolar basal epithelial cells were seeded in 20 μl medium (DMEM supplemented with 1% Fetal Bovine Serum (heat inactivated 30′ 56° C.), 2 mM L-glutamine, 50 U/ml penicillin 50 μg/ml streptomycin, 1 mM sodium pyruvate and 50 mM hepes) at 1000 cells/well and cultured in poly-D-lysine coated μclear 384 black plates for 20 hours at 37° C. and 5% CO2.
(§4) After incubation cells were challenged with compound for 3 hours at 37° C. and 5% CO2. DMSO was used as high control and as low control 10 μM of the following reference compound was used:
(§5) 40 nl of test compounds and controls were spotted in cell plates using Echo Liquid Handler (Echo 550, Labcyte). Incubation was followed by 20 minutes fixation with 20 μl 10% formaldehyde at room temperature. Medium/formaldehyde solution was removed, plates were washed 3 times with 30 μl D-PBS (w/o Ca^2+ and Ma^2+) and permeabilization was done by adding 20 μl ice cold methanol for 20 minutes. Cells were washed again 3 times with 30 μl D-PBS and 20 μl blocking buffer (25 ml fetal bovine serum in 500 ml D-PBS) was added for 1 hour.
(§6) After removing blocking buffer 20 μl 1/1000 primary antibody rabbit Phospho-Rpb1 CTD (Ser5) antibody was added which binds to the phosphorylated Serine5 of the heptapeptide sequences in the CTD of Rpb1. Primary antibody was removed, and plates were washed 3 times with 30 μl D-PBS followed by addition of 20 μl 1/2000 Alexa Fluor 488 goat anti rabbit IgG secondary antibody for final detection of Phospho-Rpb1 CTD (Ser5) together with 1/5000 HCS CellMask™ Deep Red stain for membrane staining and 1/5000 Hoechst 33258 for nucleus staining. Last, plates were washed 2 times with 30 μl D-PBS and wells were filled with 40 μL D-PBS, plates were sealed (Thermowell sealing tape) and stored at 4° C. until reading. Plates were read with Opera Phenix (Perkin Elmer) with 10× air objective. Data were calculated and analyzed in Phaedra.
(§7) IC50 values were calculated using the following formula: […]
(§8) Average value of all HC's and all LC's are used for normalizations.
(§9) A best-fit curve is fitted by a minimum sum of squares method to the plot of % Control vs. compound concentration. From this an IC50 value can be obtained. An estimate of the slope of the plot in terms of the Hill coefficient is also obtained.
In parallel this assay was performed in A549 cells overexpressing CDK7-mutant (C312S) to evaluate the effect of the covalent bond on potency and to screen for potential off-target effects. Mutation of Cysteine to Serine (C312S), a less nucleophilic amino acid, prevents CDK7 inhibitors from covalently binding to CDK7 and from inhibiting CDK7 activity in an irreversible manner. A stably transduced A549 cell pool was generated that overexpresses CDK7 mutant (C312S), but also expresses endogenous CDK7-WT. Covalent binders targeting the cysteine at position 312 will show a shift in potency in A549 cells overexpressing mutant C312S CDK7.

[2] = tested on: RNA Polymerase II Serine 5 phosphorylation (Rpb1 CTD, downstream substrate of CDK7) in A549 cells; experiment: Imaging-based cellular RNA PolII Ser5 phosphorylation assay in A549 cells; assay type: cell-based, human; details: wild-type CDK7, RNA PolII Ser5 phosphorylation, averaged over all measurements; for IC50: Homo sapiens, A549, A549 cells, read-out: CDK7_A549 Wild-type CDK7 (pIC50) (converted); for CDK7_A549 Wild-type CDK7 (pIC50): A549 cells
Source text: as §1, §2, §3, §4, §5, §6, §7, §8, §9

Row | SMILES | IC50 [1] [µM] | IC50 [2] [µM] | CDK7_A549 mutant hCDK7(pIC50) [1] | CDK7_A549 Wild-type CDK7 (pIC50) [2]
1 | C=CC(=O)N1CC[C@H](N2CCC(c3cc4c(c(C)n3)OCc3c(-c5cnn(C)c5)ccnc3N4)CC2)C1 (single isomer, unassigned) [Compound 293] | > 10 | 0.102 |  | 
2 | C=CC(=O)N1CC[C@@H](N2CCC(c3cc4c(c(C)n3)OCc3c(N5CCOCC5)ccnc3N4)CC2)C1 (single isomer, unassigned) [Compound 294] |  |  | <5 | 7.24
3 | C/C=C/C(=O)N1CC[C@@H](N2CCC(c3cc4c(c(C)n3)OCc3c(-c5cnn(C)c5)ccnc3N4)CC2)C1 (single isomer, unassigned) [Compound 302] | > 10 | ~10 |  | 
4 | C/C=C/C(=O)N1CC[C@H](N2CCC(c3cc4c(c(C)n3)OCc3c(-c5cnn(C)c5)ccnc3N4)CC2)C1 (single isomer, unassigned) [Compound 307] | > 10 | > 10 |  | 
5 | C=C(C)C(=O)N1CC[C@@H](N2CCC(c3cc4c(c(C)n3)OCc3c(-c5cnn(C)c5)ccnc3N4)CC2)C1 (single isomer, unassigned) [Compound 311] | > 10 | > 10 |  | 
6 | C=C(C)C(=O)N1CC[C@H](N2CCC(c3cc4c(c(C)n3)OCc3c(-c5cnn(C)c5)ccnc3N4)CC2)C1 (single isomer, unassigned) [Compound 312] | > 10 | > 10 |  | 
7 | C=CC(=O)N1CC[C@@H](N2CC(c3cc4c(c(C)n3)O[C@@H](C)c3c(C5CCOCC5)ccnc3N4)C2)C1 (single isomer, unassigned) [Compound 334] | > 10 | 5.25 |  | 
8 | C=CC(=O)N1CC[C@H](N2CC(c3cc4c(c(C)n3)O[C@@H](C)c3c(C5CCOCC5)ccnc3N4)C2)C1 (single isomer, unassigned) [Compound 337] | > 10 | > 5.01 |  | 
9 | CC#CC(=O)N1CC(N2CCC(c3cc4c(c(C)n3)O[C@H](C)c3c(C5CCOCC5)ccnc3N4)CC2)C1 (single isomer, unassigned) [Compound 405] | > 10 | 0.0891 |  | 
10 | C=CC(=O)N1CCC(N2CC(c3cc4c(c(C)n3)O[C@H](C)c3c(N5CCOCC5)ccnc3N4)C2)CC1 (single isomer, unassigned) [Compound 423] | 5.89 | 0.0589 |  | 
11 | CC#CC(=O)N1CC(n2cc(-c3cc4c(c(C)n3)O[C@H](C)c3c(N5CCOCC5)ccnc3N4)cn2)C1 (single isomer, unassigned) [Compound 434] | > 10 | 4.57 |  | 
12 | CC#CC(=O)N1CCC(N2CC[C@H](c3cc4c(c(C)n3)OCc3c(N5CCOCC5)ccnc3N4)C2)CC1 (single isomer, unassigned) [Compound 438] | 3.09 | 0.191 |  | 
13 | CC#CC(=O)N1CC(N2CC[C@@H](c3cc4c(c(C)n3)OCc3c(N5CCOCC5)ccnc3N4)N(C)CC2)C1 (single isomer, unassigned) [Compound 446] | > 10 | 0.794 |  | 
14 | CC#CC(=O)N1CC(N2CC[C@H](c3cc4c(c(C)n3)OCc3c(N5CCOCC5)ccnc3N4)N(C)CC2)C1 (single isomer, unassigned) [Compound 448] | 8.32 | 0.209 |  | 
15 | CC#CC(=O)N1CC(n2cc(-c3cc(C#N)c4c(c3)Nc3nccc(N5CCOCC5)c3[C@@H](C)O4)cn2)C1 (single isomer, unassigned) [Compound 450] | > 10 | 1.78 |  | 
16 | C#Cc1cc(C2CN([C@@H]3CCN(C(=O)C=C)C3)C2)cc2c1OCc1c(-c3cnn(C)c3)ccnc1N2 (single isomer, unassigned) [Compound 473] | > 10 | 0.166 |  | 
17 | C=CC(=O)N1CC[C@@H](N2CC(c3cc4c(c(C#N)n3)OCc3c(N5CCOCC5)ccnc3N4)C2)C1 (single isomer, unassigned) [Compound 474] | > 10 | 0.575 |  | 
18 | CC#CC(=O)N1CC(N2CCC(c3cc4c(c(C#N)n3)O[C@H](C)c3c(N5CCOCC5)ccnc3N4)CC2)C1 (single isomer, unassigned) [Compound 481] | > 10 | 3.02 |  | 
19 | CC#CC(=O)N1CC(N2CCC(c3cc4c(c(C#N)n3)O[C@@H](C)c3c(N5CCOCC5)ccnc3N4)CC2)C1 (single isomer, unassigned) [Compound 485] | > 10 | 0.12 |  | 
20 | C#Cc1cc(C2CN([C@H]3CCN(C(=O)C=C)C3)C2)cc2c1OCc1c(-c3cnn(C)c3)ccnc1N2 (single isomer, unassigned) [Compound 492] | 9.55 | 0.126 |  | 

Other lines, results leading:

Row | IC50 [1] [µM] | IC50 [2] [µM] | CDK7_A549 mutant hCDK7(pIC50) [1] | CDK7_A549 Wild-type CDK7 (pIC50) [2] | SMILES
21 | > 10 | 7.76 |  |  | CC#CC(=O)N1CC(N2CC(c3cc4c(c(C)n3)O[C@@H](C)c3c(N5CCOCC5)ccnc3N4)C2)C1 (single isomer, unassigned) [Compound 356]
22 | 6.17 | 0.0398 |  |  | CC#CC(=O)N1CCC(N2CC(c3cc4c(c(C)n3)O[C@H](C)c3c(N5CCOCC5)ccnc3N4)C2)CC1 (single isomer, unassigned) [Compound 358]
23 | > 10 | 0.676 |  |  | CC#CC(=O)N1CCC(N2CC(c3cc4c(c(C)n3)O[C@@H](C)c3c(N5CCOCC5)ccnc3N4)C2)CC1 (single isomer, unassigned) [Compound 360]
24 | > 10 | 2.19 |  |  | CC#CC(=O)N1CC(N2CCC(c3cc4c(c(C)n3)O[C@@H](C)c3c(N5CCOCC5)ccnc3N4)CC2)C1 (single isomer, unassigned) [Compound 371]
25 | > 10 | > 10 |  |  | CC#CC(=O)N1CC(N2CC[C@H](c3cc4c(c(C)n3)O[C@@H](C)c3c(N5CCOCC5)ccnc3N4)C2)C1 (single isomer, unassigned) [Compound 395]
26 | > 10 | > 10 |  |  | CC#CC(=O)N1CC(N2CC[C@H](c3cc4c(c(C)n3)O[C@H](C)c3c(N5CCOCC5)ccnc3N4)C2)C1 (single isomer, unassigned) [Compound 397]
27 | > 10 | 0.933 |  |  | C=CC(=O)N1CCC(N2CC(c3cc4c(c(C)n3)O[C@@H](C)c3c(N5CCOCC5)ccnc3N4)C2)CC1 (single isomer, unassigned) [Compound 430]
28 |  |  | <5 | <5 | CC#CC(=O)N1CC(N2CC(c3cc4c(c(C)n3)O[C@@H](C)c3c(N5CCOCC5)ccnc3N4)C2)C1 (single isomer, unassigned) [Compound 441]
29 | > 10 |  |  | 7.56 | CC#CC(=O)N1CC[C@H](N2CC(c3cc4c(c(C)n3)O[C@@H](C)c3c(N5CCOCC5)ccnc3N4)C2)C1 (single isomer, unassigned) [Compound 512]
30 | > 10 |  |  | 6.36 | CC#CC(=O)N1CC[C@@H](N2CC(c3cc4c(c(C)n3)O[C@H](C)c3c(N5CCOCC5)ccnc3N4)C2)C1 (single isomer, unassigned) [Compound 513]
31 | 8.91 | ~0.0115 |  |  | CC#CC(=O)N1CC[C@@H](N2CC(c3cc4c(c(C)n3)O[C@@H](C)c3c(N5CCOCC5)ccnc3N4)C2)C1 (single isomer, unassigned) [Compound 515]

— patent publication US20240254138A1, “TRICYCLIC PYRIMIDINES AS CYCLIN-DEPENDENT KINASE 7 (CDK7) INHIBITORS” (JANSSEN PHARMACEUTICA NV, priority 2021, published 2024)
